Consider 3 compounds from patent US5552156A, “Liposomal and micellular stabilization of camptothecin drugs” (Ohio State University, priority 1995, dated 1996).

Holding throughout (assay type): physicochemical
A short description of data set [1]: Fluorescence excitation and emission spectra of camptothecin drugs free in solution and bound to liposomes. The source says:
The camptothecin drugs are intrinsically intensely fluorescent. Fluorescence is associated with the extended conjugation of the quinoline ring system. The liposomes of Examples 1-7 were characterized for the presence of the camptothecin drugs, using excitation and emission spectrography, and fluorescence anisotropy.
(§1) Steady-state fluorescence measurements were obtained on a SLM Model 4800C. spectrofluorometer with a thermostated cuvette compartment. This instrument was interfaced with an IBM PS/2 model 55 SX computer. Excitation and emission spectra were recorded with an excitation resolution of 8 nm and an emission resolution of 4 nm. In all cases spectra were corrected for background fluorescence and scatter from unlabeled lipids or from solvents by subtraction of the spectrum of a blank. Steady-state fluorescence intensity measurements were made in the absence of polarizer. Steady-state anisotropy (a) measurements were determined with the instrument in the "T-format" for simultaneous measurement of two polarized intensities. The alignment of polarizers were checked routinely using a dilute suspension of 0.25 μm polystyrene microspheres from Polysciences, Inc, Warrington, Pa., in water; anisotropy values of >0.99 were obtained. The anisotropy was calculated from a=(Ivv -GlVH)/(Ivv +GIVH), where G-IVH /IHH and the subscripts refer to vertical and horizontal orientations of the excitation and emission polarizers, respectively.
(§2) Anisotropy measurements for camptothecin, camptothecin carboxylate sodium salt, and 10,11-methylenedioxycamptothecin were conducted using exciting light of 370 nm and 420 nm long wave pass filters on each emission channel in order to isolate the fluorescence signal from background scatter and signal. For topotecan a 400 nm excitation wavelength and a 500 nm emission filter were used and for 9-aminocamptothecin a 375 nm excitation and a wavelength 420 nm emission filter were used. For AMC and CMC, a 370 nm excitation wavelength and a 400 nm emission filter were used. For 10-hydroxycamptothecin 375 nm excitation wavelength 500 nm emission filter was used. Emission filters were obtained from Oriel Corp. Stamford, Conn. The combination of exciting light and emission filters allows one to adequately separate the fluorescence from the background signal. The contribution of background fluorescence, together with scattered light, was typically less than 1% of the total intensity. Since the lactone ring of the camptothecin drug undergoes hydrolysis in aqueous medium, all measurements were completed within the shortest possible time, less than 1 minute after mixing the drug stock solution with PBS or the liposomes. In each case, analysis was initiated immediately after mixing the drug stock solution with PBS or with the liposomes. All measurements were performed at 37° C. unless otherwise noted.
The relative fluorescence intensity of 1×10^-6 M of camptothecin free in PBS buffer at 37° C. is shown. The emission spectra of the camptothecin was recorded using exciting light of 370 nm.
An exciting light of 390 nm was used to record the emission spectra of topotecan. A decrease in the emission intensity is observed for topotecan associated with the DMPG liposome.
All spectra were recorded using camptothecin drug concentrations of 2
μM. The DMPC and DMPG concentrations were 0.29 M. Experiments were
conducted in PBS buffer at 37° C.
Also found in Table II is a relative index of the emission intensity levels from these camptothecin drugs in PBS at their respective excitation and emission λMAX.

A short description of data set [2]: Steady-state fluorescence anisotropy in solvents and liposomes. As to conditions: for steady-state anisotropy (a), DMPC: DMPC liposomes. Here is the method:
as §1, §2
(§3) While the spectral changes provide qualitative evidence that the camptothecin drugs bind the liposome membranes, fluorescence anisotropy titration, offers the most sensitive means for quantitatively assessing the extent of the binding. The fluorescence anisotropy titration was performed according to the method of Burke and Tritton, Biochemistry 24: 1768-1776 (1985).
A steady-state fluorescence anisotropy (a) measurement is related to the rotational rate of the fluorescent molecule through the Perrin Equation: […]
where a0 is the limiting fluorescence anisotropy value, that is, the anisotropy value in the absence of depolarizing rotations, T is the excited-state lifetime, and .phi. is the rotational correlative time of the fluorophore. According to Equation 1, changes in either the T or .phi. values of a fluorescent compound can modulate its steady-state anisotropy.
The limiting fluorescence anisotropy (a0) values were also measured. The maximum values of (a) were obtained by dissolving the camptothecin drugs in the viscous solvent glycerol and cooling the samples to low temperatures. Steady-stated anisotropy (a) values were determined for samples containing 1 μM drug at 37° C.
Where the solvent viscosity is high and temperature is low, depolarizing rotations are at a minimum. By extrapolating these (a) values to -25° C., the limiting anisotropy values (a0) for the camptothecin drugs, were determined. […]

Data set [3] can be described thus: HPLC assay of lactone ring hydrolysis, free in PBS or associated with liposomes or micelles. The settings on record: for carboxylate/lactone ratio (C/L) free drug: final equilibrium; for carboxylate/lactone ratio (C/L) free drug / t1/2 free drug: free in PBS, pH 7.4, 37° C.; for t1/2 free drug: lactone hydrolysis. As for the experimental part:
A high performance liquid chromatography assay was used to determine the rate of hydrolysis of camptothecin and topotecan free in aqueous solution and to compare such rates with the rate of hydrolysis for the same drugs when bound to the DMPG and DMPC liposome membranes. The assay was conducted under near physiological conditions; the pH was 7.4, the temperature was 37° C. and the ionic strength was physiological. A Spectroflow model 980 fluorescence detector coupled to an HP 3392A integrator which acquired and processed the chromatograms, was used. For camptothecin, an Ultrasphere ODS C-18 250 mm long column was used. The mobile phase consisted of 32% acetonitrile, 67% 0.1M acetate buffer, pH 5.5, and 1% 01.M sodium dodecylsulfate at a flow rate of 1 mL/min. The detector was set to 370 nm excitation wavelength and a 418 nm long pass emission filter. A 1 μM solution of camptothecin in PBS was prepared and incubated at 37° C. Immediately after mixing the drug stock solution with PBS and at intervals of 5 min thereafter, 50 μL aliquots were taken out and mixed with 150 μL methanolic internal standard, 9-toluoylamidocamptothecin and either analyzed immediately or kept cold under dry ice. 150 μL of this mixture was diluted with 125 μL water and 200 μL was injected. The ratio of the peak areas corresponding to the intact lactone form of the camptothecin drug and the internal standard at a particular time was normalized to that at the time of mixing and was considered as the concentration of the intact lactone form.
For topotecan the excitation wavelength was 362 nm and the emission was observed through a 470 long wave pass filter. The stationary phase was Waters Nova-Pak C-18 150mm long column. The mobile phase consisted of 500 mL 0.1M KH2 PO4, 550 mL acetonitrile, 4.2 mL triethylamine (distilled over molecular sieves), 4.44 g sodium dioctylsulfosuccinate (DOSS), and 970 ml water. The pH was adjusted to 6.0 with H3 PO4. Internal standard solution contained 50×10^-9 g acridine from Eastman and 20×10^-3 M DOSS in methanol and was always kept cold at ≤-20° C. Next 150 μL or cold internal standard solution was mixed with 50 μL aliquot containing topotecan, centrifuged for 1 minute and the supernatant was either analyzed immediately or stored at -20° C. for analysis at a later time, within 2 hours. Samples were monitored at time points from 0 minutes, that is, immediately following dissolution, up to 72 hours.
The kinetics of lactone ring hydrolysis for free camptothecin, CMC and topotecan are shown in of FIGS. 7a, 7b and 7c. Analysis of the decay profile for camptothecin, CMC and topotecan free in PBS was accomplished using a nonlinear least squares program.

Data set [4] is described as follows: Overall association constant by fluorescence anisotropy titration, DMPC liposomes. As for the experimental part: as §3
The concentrations of free camptothecin drugs and camptothecin drugs associated with liposomes were determined at various lipid concentrations. All experiments were conducted in glass tubes pretreated with a silating agent, Surfacil, from Pearce Chemical, Rockford, Ill. The titration was conducted at camptothecin drug concentration of 1×10^-6 M in PBS at 37° C. Anisotropy values at each lipid concentration were determined within less than 30 seconds following the addition of the camptothecin drugs to the liposome suspension. The (a) values were determined for fixed drug concentration, typically 2 μM, while the lipid concentration was varied from 0 to 0.29M. By varying the lipid concentration rather than varying the drug concentration, the problem of self-association phenomenon which occurs for camptothecin drugs concentrations in excess of 10 μM is avoided. Also, the well-known phenomenon known as inner filter effect which occurs using fluorescent material at high optical densities is a is avoided.
Adsorption isotherms like those shown in FIGS. 4A and 4B were used to determine overall association constants for the camptothecin drugs. Overall association constants are defined as: […]
where [AB ] represents the concentration of the camptothecin drug bound to the vesicle membrane, [AF ] represents the concentration of free drug, and [L] represents the total lipid concentration in the liposome suspension. This equation is valid when the concentration of free lipid is approximately equal to the concentration of total lipid, that is, the concentration of free lipid is in great excess over the concentration of bound drug. Provided this concentration is satisfied, K may be determined from the inverse of the slope of a double reciprocal plot according to (Burke and Tritton, Biochemistry 24:1776, 1985). In such a plot, 1/bound fraction of the total camptothecin drug is plotted vs. 1/[lipid], with a y-intercept value of 1.
FIG. 6A is the double-reciprocal plot for the associations of CMC, camptothecin, camptothecin carboylate sodium salt and topotecan with DMPC at 37° C.
The stabilization of camptothecin drugs was determined using different lipids. Three types of lipids (and thus 3 types of membranes) were examined: fluid-phase and electroneutral L-α-dimyristoylphosphatidylcholine (DMPC); fluid-phase and negatively-charged L-α-dimyristoylphosphatidylglycerol (DMPG), and solid-phase and electroneutral L-α-distearoylphosphatidylcholine (DSPC). While DMPC and DMPG have identical chain length, the charge on their head groups differ. DMPC and DSPC have identical head groups, but DMPC has acyl chains having 14 carbons per chain, which are four carbons shorter than the DSPC, which has 18 carbons per chain. This difference of 4-carbon chain length results in DMPC being fluid-phase at 37° C. while DSPC is solid-phase. The 7 camptothecin drugs listed in Table III were combined with liposomes containing the above lipids.
FIGS. 4A and 4B show the extent of camptothecin drug binding to liposomes as a function of lipid concentration for DMPC and DMPG liposomes. DMPC liposomes were made as in Example 1, at lipid concentrations from 0 to 0.29M, using CMC, 10-hydroxycamptothecin, 10,11-methylenedioxy-camptothecin, topotecan, camptothecin, and camptothecin carboxylate sodium salt, as shown in FIG. 4B. DMPG liposomes were made as in Example 2, at lipid concentrations from 0 to 0.29M, using 9-chloro-10,11-methylenedioxycamptothecin CMC, 10,11-methylenedioxycamptothecin, camptothecin, and topotecan, 9-aminocamptothecin, as shown in FIG. 4A. […]
On the technique in general: In fluorescence polarisation assays a small probe gives low polarisation when free and higher when bound to something large.

Where [5] appears, read: in PBS, pH 7.4, at excitation and emission λMAX.

Structures can show the parent of a compound that is named as a salt.

For the compound `CCC1(O)C(=O)OCc2c1cc1n(c2=O)Cc2cc3c(N)c4c(cc3nc2-1)OCO4` (centres unmarked) [9-amino-10,11-methylenedioxycamptothecin], the “emission maxima as the pH is decreased” value in data set [1] (2 μM, excitation 370 nm, decreased pH) came to 430 nm. For the same compound, the “shift of emission maxima upon decrease of pH / protonation” value in data set [1] (free in PBS) is on record as “about 120 nm”. Further, the “λMAX emission, PBS” value in data set [1] (free in PBS, pH 7.4, 37° C.) was found to be 550 nm; in data set [1] (pH 1.5, free in PBS) it was 430 nm. In addition, the “Relative Fluorescence” value in data set [1] (setting [5]) is reported as 0.001; in data set [1] (pH 1.5, PBS) it was 0.06. For the same compound, the λMAX excitation in data set [1] (pH 1.5) worked out at 373 nm; in data set [1] (pH 7.4, 2 μM drug, PBS, 37° C.) it was 404 nm. In addition, the “steady-state anisotropy (a), DMPC” value in data set [2] (pH 2, 37° C.) was found to be 0.160. Further, the “steady-state anisotropy (a), PBS” value in data set [2] (pH 3, 37° C.) is 0.049. Moreover, in data set [3] (DMPC and DMPG liposomes), the “lactone hydrolysis when associated with liposomes” value was “some hydrolysis occurred at 1 hour”. Besides, the “lactone ring hydrolysis at 5 hours” value in data set [3] (DMPG or DMPC liposomes, 5 hours) is not above 40%. Moreover, the “carboxylate/lactone ratio (C/L) free drug” value in data set [3] came to 5.1. The compound also had a t1/2 free drug in data set [3] of 26.9 min.

With `CCC1(O)C(=O)OCc2c1cc1n(c2=O)Cc2cc3c([N+](=O)[O-])cccc3nc2-1` (centres unmarked) [9-nitrocamptothecin], the “reduction in emission intensity levels relative to camptothecin” value in data set [1] (free in PBS, pH 7.4) is recorded as 1000 -fold. Moreover, the “λMAX emission, PBS” value in data set [1] (free in PBS, pH 7.4, 37° C.) is on record as 456 nm. Also, in data set [1] (setting [5]), the “Relative Fluorescence” value amounted to 0.001. Further, the λMAX excitation in data set [1] (pH 7.4, 2 μM drug, PBS, 37° C.) was determined as 378 nm. In addition, in data set [3], the “carboxylate/lactone ratio (C/L) free drug” value was found to be 7.5 and the t1/2 free drug came to 23.8 min.

For `CCC(O)(C(=O)O)c1cc2n(c(=O)c1CO)Cc1cc3ccccc3nc1-2` (centres unmarked) [camptothecin carboxylate, camptothecin carboxylate sodium salt], in data set [1] (DMPC liposomes 0.29 M, pH 7.4, 37° C.), the “λMAX emission, DMPC” value worked out at 437 nm. In data set [1] (DMPG liposomes 0.29 M, pH 7.4, 37° C.), the “λMAX emission, DMPG” value was 435 nm. Further, in data set [1] (free in PBS, pH 7.4, 37° C.), the “λMAX emission, PBS” value was 443 nm. Further, the “Relative Fluorescence” value in data set [1] (setting [5]) is on record as 1. The λMAX excitation in data set [1] (pH 7.4, 2 μM drug, PBS, 37° C.) is recorded as 377 nm. For the same compound, in data set [2] (37° C., 1/a vs. 1/[lipid] plot), the “steady-state anisotropy (a), DMPC” value amounted to 0.102. Besides, in data set [2] (1 μM drug, 37° C.), the “steady-state anisotropy (a), PBS” value came to 0.008. The “limiting fluorescence anisotropy a0” value in data set [2] (extrapolated to -25° C., glycerol) is 0.377. Moreover, in data set [2] (glycerol, 1 μM drug, 37° C.), the “steady-state anisotropy (a), glycerol” value is 0.327. The “steady-state anisotropy (a), octanol” value in data set [2] (octanol, 1 μM drug, 37° C.) is 0.073. In addition, in data set [4] (DMPC (electroneutral, fluid phase), PBS, 37° C.), the “overall association constant K, DMPC” value is 40 M⁻¹. The “reduction in binding to DMPC liposomes upon hydrolysis to carboxylate” value in data set [4] (relative to camptothecin) is “three-fold reduction”.
